In patent publication US7498436B2, “Substituted hydroxyethylamines” (Pharmacia & Upjohn Company LLC, priority 2002, dated 2009) one finds melting point data, which are given here for 4 compounds.

In general, melting point refers to the temperature, or range, at which the solid turns liquid.

In turn, `CCCN(CCC)C(=O)c1cc(C(=O)N[C@@H](Cc2ccccc2)[C@H](O)CNCc2cccc(OC)c2)cc(-c2ccsc2)c1.Cl` came in with a melting point of 199 to 201 °C.
As for `CCCN(CCC)C(=O)c1cc(C(=O)N[C@@H](Cc2ccccc2)[C@H](O)CNCc2cccc(OC)c2)cc(-c2ccc(OC)cc2)c1.Cl`, the melting point lay in the range of 205 to 209 °C.
`CCCN(CCC)C(=O)c1cc(C(=O)N[C@@H](Cc2cc(F)cc(F)c2)[C@H](O)CNCc2cccc(OC)c2)cc(-c2ccccc2)c1.Cl` displayed a melting point of 230 to 233 °C.
Compound `CCCN(CCC)C(=O)c1cc(C(=O)N[C@@H](Cc2ccccc2)[C@H](O)CNCc2cccc(OC)c2)cc(-c2ccccc2)c1.Cl` came in with a melting point of 214 to 219 °C.
